Test results: patent US9018414B2, “Substituted 3-phenylpropionic acids and the use thereof” (Bayer Intellectual Property GmbH, priority 2009, dated 2015)

Legend:
[1] = target: T1, soluble guanylate cyclase (sGC) (Rattus norvegicus, UniProt P20595); assay: Stimulation of sGC enzyme activity (PPi detection, luciferase luminescence); format: biochemical; details: for EC50: EC50 = concentration at 50% of maximum efficacy, read-out: Activating action at the sGC enzyme in vitro, EC50; for Activating action at the sGC enzyme in vitro, MEC: MEC = minimal effective concentration
T1 construct: made in house; host or cells: Sf9 insect cells (baculovirus)
T1 sequence (P20595 1-619): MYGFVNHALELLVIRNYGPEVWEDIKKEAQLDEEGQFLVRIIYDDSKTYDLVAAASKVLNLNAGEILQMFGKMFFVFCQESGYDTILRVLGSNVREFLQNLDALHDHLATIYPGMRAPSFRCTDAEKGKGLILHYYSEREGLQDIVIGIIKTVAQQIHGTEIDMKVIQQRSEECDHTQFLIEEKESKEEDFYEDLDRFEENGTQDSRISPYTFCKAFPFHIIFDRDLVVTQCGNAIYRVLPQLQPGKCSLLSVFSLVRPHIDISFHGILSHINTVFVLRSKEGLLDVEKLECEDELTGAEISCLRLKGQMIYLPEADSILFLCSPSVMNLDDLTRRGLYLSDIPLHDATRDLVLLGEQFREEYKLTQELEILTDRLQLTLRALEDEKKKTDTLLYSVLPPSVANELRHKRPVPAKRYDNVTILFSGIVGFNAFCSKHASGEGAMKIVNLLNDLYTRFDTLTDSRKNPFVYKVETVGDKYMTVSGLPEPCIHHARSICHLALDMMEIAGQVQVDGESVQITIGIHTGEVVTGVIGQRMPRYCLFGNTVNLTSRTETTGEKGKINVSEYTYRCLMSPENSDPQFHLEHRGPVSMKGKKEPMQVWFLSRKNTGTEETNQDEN
T1 sequence (P19686 1-690 partner): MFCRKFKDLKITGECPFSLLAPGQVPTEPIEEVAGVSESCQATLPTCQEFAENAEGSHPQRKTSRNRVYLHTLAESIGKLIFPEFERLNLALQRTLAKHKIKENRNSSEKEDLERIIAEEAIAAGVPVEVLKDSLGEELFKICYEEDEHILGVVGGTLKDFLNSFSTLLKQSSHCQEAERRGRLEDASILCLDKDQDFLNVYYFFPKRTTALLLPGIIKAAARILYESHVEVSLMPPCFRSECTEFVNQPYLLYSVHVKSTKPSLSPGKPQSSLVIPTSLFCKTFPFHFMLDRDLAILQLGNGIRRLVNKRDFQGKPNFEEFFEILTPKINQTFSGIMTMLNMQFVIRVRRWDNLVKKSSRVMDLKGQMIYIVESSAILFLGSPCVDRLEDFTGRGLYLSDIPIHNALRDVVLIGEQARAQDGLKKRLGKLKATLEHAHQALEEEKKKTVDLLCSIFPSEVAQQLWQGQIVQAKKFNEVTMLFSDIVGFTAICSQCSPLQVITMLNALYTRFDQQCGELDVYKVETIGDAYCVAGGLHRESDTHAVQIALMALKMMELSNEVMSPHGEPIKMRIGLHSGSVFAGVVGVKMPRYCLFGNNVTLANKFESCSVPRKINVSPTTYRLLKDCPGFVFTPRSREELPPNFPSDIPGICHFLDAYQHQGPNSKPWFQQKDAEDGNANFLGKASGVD
Experimental: Soluble guanylate cyclase (sGC) converts on stimulation GTP into cGMP and pyrophosphate (PPi). PPi is detected with the aid of the assay described below. The signal produced in the assay increases as the reaction progresses and serves as a measure of the sGC enzyme activity under the given stimulation.
To carry out the assay, 29 μl of enzyme solution [0-10 nM soluble guanylate cyclase (prepared according to Hönicka et al., J. Mol. Med. 77, 14-23 (1999)) in 50 mM TEA, 2 mM MgCl2, 0.1% BSA (fraction V), 0.005% Brij®, pH 7.5] are initially introduced into a microplate, and 1 μl of the substance to be tested (as a serially diluted solution in DMSO) is added. The mixture is incubated at room temperature for 10 min. Then 20 μl of detection mix [1.2 nM Firefly Luciferase (Photinus pyralis luciferase, Promega), 29 μM dehydroluciferin (prepared according to Bitler & McElroy, Arch. Biochem. Biophys. 72, 358 (1957)), 122 μM luciferin (Promega), 153 μM ATP (Sigma) and 0.4 mM DTT (Sigma) in 50 mM TEA, 2 mM MgCl2, 0.1% BSA (fraction V), 0.005% Brij®, pH 7.5] are added. The enzyme reaction is started by adding 20 μl of substrate solution [1.25 mM guanosine 5′-triphosphate (Sigma) in 50 mM TEA, 2 mM MgCl2, 0.1% BSA (fraction V), 0.005% Brij®, pH 7.5] and measured continuously in a luminometer. The extent of the stimulation by the substance to be tested can be determined relative to the signal of the unstimulated reaction.
The activation of haem-free guanylate cyclase is examined by addition of 25 μM of 1H-1,2,4-oxadiazolo[4,3-a]quinoxalin-1-one (ODQ) to the enzyme solution and subsequent incubation for 30 minutes, and compared to the stimulation of the native enzyme.

[2] = target: T2, haem-containing recombinant soluble guanylate cyclase (sGC) (Rattus norvegicus, UniProt P20595); assay: Stimulation of recombinant soluble guanylate cyclase (sGC) in vitro, haem-containing enzyme; format: biochemical; details: for Effect of combination with the NO donor DEA/NO on sGC stimulation: haem-containing sGC
T2 construct: made in house; host or cells: Sf9 insect cells (baculovirus)
T2 sequence (P20595 1-619): T1 sequence (P20595 1-619)
T2 sequence (P19686 1-690 partner): T1 sequence (P19686 1-690 partner)
Experimental: (§1) Investigations on the stimulation of recombinant soluble guanylate cyclase (sGC) by the compounds according to the invention with and without sodium nitroprusside, and with and without the haem-dependent sGC inhibitor 1H-1,2,4-oxadiazolo-(4,3a)-quinoxalin-1-one (ODQ) are carried out by the method described in detail in the following reference: M. Hoenicka, E. M. Becker, H. Apeler, T. Sirichoke, H. Schroeder, R. Gerzer and J.-P. Stasch, “Purified soluble guanylyl cyclase expressed in a baculovirus/Sf9 system: Stimulation by YC-1, nitric oxide, and […]”, J. Mol. Med. 77 (1999), 14-23. The haem-free guanylate cyclase is obtained by adding Tween 20 to the sample buffer (0.5% in the final concentration).
(§2) The activation of sGC by a test substance is reported as x-fold stimulation of the basal activity.

[3] = target: T3, haem-free recombinant soluble guanylate cyclase (sGC) (Rattus norvegicus, UniProt P20595); assay: Stimulation of recombinant soluble guanylate cyclase (sGC) in vitro, haem-free enzyme; format: biochemical
T3 construct: made in house; host or cells: Sf9 insect cells (baculovirus)
T3 sequence (P20595 1-619): T1 sequence (P20595 1-619)
T3 sequence (P19686 1-690 partner): T1 sequence (P19686 1-690 partner)
Experimental: as §1, §2

[4] = tested on: recombinant guanylate cyclase reporter cell line; assay: Action at recombinant guanylate cyclase reporter cell line (CHO reporter cell); format: cell-based; details: MEC = minimal effective concentration; read-out: sGC-activating activity in the CHO reporter cell in vitro, MEC
Experimental: The cellular action of the compounds according to the invention is determined at a recombinant guanylate cyclase reporter cell line, as described in F. Wunder et al., Anal. Biochem. 339, 104-112 (2005).

EC50 [1] [nM] | Activating action at the sGC enzyme in vitro, MEC [1] [nM] | Stimulation (x-fold) of recombinant sGC, haem-containing sGC, +0.01 μM DEA/NO ([2]; 0.01 μM test compound) [x-fold] | Stimulation (x-fold) of recombinant sGC, haem-containing sGC, +10 μM ODQ ([2]; 0.01 μM test compound) [x-fold] | Stimulation (x-fold) of recombinant sGC, haem-containing sGC, basal ([2]; 0.01 μM test compound) [x-fold] | Stimulation (x-fold) of recombinant sGC, haem-containing sGC, +0.01 μM DEA/NO ([2]; 0.1 μM test compound) [x-fold] | Stimulation (x-fold) of recombinant sGC, haem-containing sGC, +10 μM ODQ ([2]; 0.1 μM test compound) [x-fold] | Stimulation (x-fold) of recombinant sGC, haem-containing sGC, basal ([2]; 0.1 μM test compound) [x-fold] | Stimulation (x-fold) of recombinant sGC, haem-containing sGC, +0.01 μM DEA/NO ([2]; 1.0 μM test compound) [x-fold] | Stimulation (x-fold) of recombinant sGC, haem-containing sGC, +10 μM ODQ ([2]; 1.0 μM test compound) [x-fold] | Stimulation (x-fold) of recombinant sGC, haem-containing sGC, basal ([2]; 1.0 μM test compound) [x-fold] | Stimulation (x-fold) of recombinant sGC, haem-containing sGC, +0.01 μM DEA/NO ([2]; 10 μM test compound) [x-fold] | Stimulation (x-fold) of recombinant sGC, haem-containing sGC, +10 μM ODQ ([2]; 10 μM test compound) [x-fold] | Stimulation (x-fold) of recombinant sGC, haem-containing sGC, basal ([2]; 10 μM test compound) [x-fold] | Stimulation (x-fold) of recombinant sGC, haem-containing sGC, +0.01 μM DEA/NO ([2]; 100 μM test compound) [x-fold] | Stimulation (x-fold) of recombinant sGC, haem-containing sGC, +10 μM ODQ ([2]; 100 μM test compound) [x-fold] | Stimulation (x-fold) of recombinant sGC, haem-containing sGC, basal ([2]; 100 μM test compound) [x-fold] | Effect of combination with the NO donor DEA/NO on sGC stimulation [2] | Stimulation (x-fold) of recombinant sGC, haem-free sGC, basal ([3]; 0.01 μM test compound) [x-fold] | Stimulation (x-fold) of recombinant sGC, haem-free sGC, basal ([3]; 0.1 μM test compound) [x-fold] | Structure (SMILES) | also measured
290 | 10 | 5.9 ± 0.7 | 4.6 ± 0.8 | 1.1 ± 0.1 | 7.4 ± 0.8 | 4.5 ± 0.6 | 1.0 ± 0.1 | 8.5 ± 0.7 | 4.8 ± 0.8 | 0.9 ± 0.1 | 11.5 ± 0.9 | 16.3 ± 1.3 | 3.1 ± 0.3 | 45.9 ± 3.1 | 97.3 ± 7.7 | 31.6 ± 2.6 | no synergistic effect | 1.7 ± 0.3 | 1.8 ± 0.2 | C[C@H]([C@H](C(=O)Nc1cc(CCC(=O)O)ccc1Cl)c1ccc(Cl)cc1)C(F)(F)F [Example 15, (+)-3-(4-Chloro-3-{[(2S,3R)-2-(4-chlorophenyl)-4,4,4-trifluoro-3-methylbutanoyl]amino}phenyl)-propanoic acid] | Stimulation (x-fold) of recombinant sGC, haem-free sGC, basal ([3]; 1.0 μM test compound): 3.0 ± 0.5 x-fold; Stimulation (x-fold) of recombinant sGC, haem-free sGC, basal ([3]; 10 μM test compound): 17.9 ± 3.1 x-fold; Stimulation (x-fold) of recombinant sGC, haem-free sGC, basal ([3]; 100 μM test compound): 40.3 ± 6.6 x-fold; minimal effective concentration [4]: 0.01 µM
130 | 7 | 9.6 ± 0.8 | 4.9 ± 1.2 | 0.7 ± 0.2 | 8.8 ± 1.2 | 5.3 ± 1.3 | 0.6 ± 0.1 | 9.8 ± 1.2 | 4.5 ± 1.1 | 0.6 ± 0.1 | 10.7 ± 1.0 | 8.3 ± 1.4 | 1.8 ± 0.3 | 11.4 ± 1.2 | 15.0 ± 2.0 | 4.9 ± 0.7 | no synergistic effect | 1.7 ± 0.2 | 2.0 ± 0.3 | C[C@H]([C@H](C(=O)Nc1cc(C[C@H](C)C(=O)O)ccc1Cl)c1ccc(Cl)cc1)C(F)(F)F [Example 17, (+)-(2S)-3-(4-Chloro-3-{[(2S,3R)-2-(4-chlorophenyl)-4,4,4-trifluoro-3-methylbutanoyl]amino}-phenyl)-2-methylpropanoic acid] | Stimulation (x-fold) of recombinant sGC, haem-free sGC, basal ([3]; 1.0 μM test compound): 4.1 ± 0.3 x-fold; Stimulation (x-fold) of recombinant sGC, haem-free sGC, basal ([3]; 10 μM test compound): 22.9 ± 1.8 x-fold; Stimulation (x-fold) of recombinant sGC, haem-free sGC, basal ([3]; 100 μM test compound): 33.5 ± 3.3 x-fold; minimal effective concentration [4]: 0.0048 µM
